Experimental data taken from article PMC8436214 (Journal of Medicinal Chemistry, 2021).
Entries after “also recorded” stand apart in the source; their conditions may differ.

What was measured:
Human recombinant PNMT = target: T1, Human recombinant PNMT (Homo sapiens, UniProt P11086); assay: PNMT selectivity assay; type: biochemical
T1 sequence (P11086 1-282): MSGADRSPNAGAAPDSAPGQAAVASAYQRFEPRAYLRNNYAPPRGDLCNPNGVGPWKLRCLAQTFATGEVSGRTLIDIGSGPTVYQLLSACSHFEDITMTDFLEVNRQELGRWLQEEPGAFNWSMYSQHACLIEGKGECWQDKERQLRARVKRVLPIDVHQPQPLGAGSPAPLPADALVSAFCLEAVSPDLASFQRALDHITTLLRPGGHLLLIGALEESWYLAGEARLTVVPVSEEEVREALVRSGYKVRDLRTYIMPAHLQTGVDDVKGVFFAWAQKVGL

PRMT4/CARM1 = target: T2, PRMT4/CARM1 (Homo sapiens, UniProt Q86X55); assay: PRMT4/CARM1 methyltransferase inhibition assay; type: biochemical; settings: 3.7, 11.1, 33.3, and 100 μM
T2 sequence (Q86X55 1-608): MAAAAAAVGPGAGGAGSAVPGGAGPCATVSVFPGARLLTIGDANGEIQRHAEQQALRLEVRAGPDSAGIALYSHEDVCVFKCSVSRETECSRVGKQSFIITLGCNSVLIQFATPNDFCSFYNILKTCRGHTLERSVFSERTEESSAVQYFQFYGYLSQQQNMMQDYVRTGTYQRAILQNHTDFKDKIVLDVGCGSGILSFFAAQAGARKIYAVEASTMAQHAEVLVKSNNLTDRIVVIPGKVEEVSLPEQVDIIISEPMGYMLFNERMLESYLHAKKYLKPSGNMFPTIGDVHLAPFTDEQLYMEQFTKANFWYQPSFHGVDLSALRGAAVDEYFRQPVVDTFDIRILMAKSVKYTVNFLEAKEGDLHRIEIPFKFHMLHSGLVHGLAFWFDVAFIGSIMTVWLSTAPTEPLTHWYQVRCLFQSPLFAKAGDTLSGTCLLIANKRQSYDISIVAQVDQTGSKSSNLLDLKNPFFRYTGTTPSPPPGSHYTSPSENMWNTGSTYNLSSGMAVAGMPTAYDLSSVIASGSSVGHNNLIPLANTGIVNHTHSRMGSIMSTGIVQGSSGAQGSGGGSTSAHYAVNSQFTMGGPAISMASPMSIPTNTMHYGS

SMYD2 = SMYD2 (Homo sapiens, UniProt Q9NRG4); assay: Methyltransferase selectivity assay; type: biochemical
PRMT5 = PRMT5 (Homo sapiens, UniProt O14744); assay: Methyltransferase selectivity assay; type: biochemical
DOT1L = DOT1L (Homo sapiens, UniProt Q8TEK3); assay: Methyltransferase selectivity assay; type: biochemical
[1] = test system: HSC-2 human oral cancer cell line; assay: MTT cell proliferation/viability assay; type: cell-based
[2] = test system: A549 human lung cancer line; assay: MTT cell proliferation/viability assay; type: cell-based
[3] = test system: T24 human bladder cancer cell line; assay: MTT cell proliferation/viability assay; type: cell-based
[4] = Parallel artificial membrane permeability assay; type: in vitro ADME; settings: PAMPA
[5] = lower concentrations tested (from 1 μM)

Chain of SMYD2 (Q9NRG4 whole entry, species assumed): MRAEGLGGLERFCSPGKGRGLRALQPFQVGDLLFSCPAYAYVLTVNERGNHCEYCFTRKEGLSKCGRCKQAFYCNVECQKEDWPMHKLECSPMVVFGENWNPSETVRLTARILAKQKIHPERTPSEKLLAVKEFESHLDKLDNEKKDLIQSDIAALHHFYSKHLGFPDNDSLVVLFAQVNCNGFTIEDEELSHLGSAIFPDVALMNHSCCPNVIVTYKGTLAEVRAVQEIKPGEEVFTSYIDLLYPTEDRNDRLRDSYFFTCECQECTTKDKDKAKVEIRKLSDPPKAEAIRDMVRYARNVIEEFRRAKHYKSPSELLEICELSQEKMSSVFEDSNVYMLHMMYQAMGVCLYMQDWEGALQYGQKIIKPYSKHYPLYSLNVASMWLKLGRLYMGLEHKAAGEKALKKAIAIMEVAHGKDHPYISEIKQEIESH
Chain of PRMT5 (O14744 whole entry, species assumed): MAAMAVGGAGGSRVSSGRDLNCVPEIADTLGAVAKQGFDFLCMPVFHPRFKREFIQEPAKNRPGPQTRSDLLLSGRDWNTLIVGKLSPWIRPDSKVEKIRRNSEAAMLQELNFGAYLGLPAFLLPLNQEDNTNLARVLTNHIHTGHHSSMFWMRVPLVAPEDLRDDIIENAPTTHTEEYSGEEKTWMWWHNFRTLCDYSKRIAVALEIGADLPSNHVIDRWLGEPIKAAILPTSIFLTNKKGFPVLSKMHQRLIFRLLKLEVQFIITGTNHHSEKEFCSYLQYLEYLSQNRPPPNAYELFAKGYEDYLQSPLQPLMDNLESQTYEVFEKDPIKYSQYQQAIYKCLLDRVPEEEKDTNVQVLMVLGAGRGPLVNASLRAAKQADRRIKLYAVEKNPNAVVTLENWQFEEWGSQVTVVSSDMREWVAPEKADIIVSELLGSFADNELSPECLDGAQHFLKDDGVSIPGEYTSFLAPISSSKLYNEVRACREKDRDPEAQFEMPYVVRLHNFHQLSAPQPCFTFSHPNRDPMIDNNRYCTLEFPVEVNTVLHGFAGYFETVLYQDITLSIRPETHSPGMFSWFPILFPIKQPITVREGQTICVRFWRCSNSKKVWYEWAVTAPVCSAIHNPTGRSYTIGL
Chain of PRMT5 (Q9BQA1 whole entry partner, species assumed): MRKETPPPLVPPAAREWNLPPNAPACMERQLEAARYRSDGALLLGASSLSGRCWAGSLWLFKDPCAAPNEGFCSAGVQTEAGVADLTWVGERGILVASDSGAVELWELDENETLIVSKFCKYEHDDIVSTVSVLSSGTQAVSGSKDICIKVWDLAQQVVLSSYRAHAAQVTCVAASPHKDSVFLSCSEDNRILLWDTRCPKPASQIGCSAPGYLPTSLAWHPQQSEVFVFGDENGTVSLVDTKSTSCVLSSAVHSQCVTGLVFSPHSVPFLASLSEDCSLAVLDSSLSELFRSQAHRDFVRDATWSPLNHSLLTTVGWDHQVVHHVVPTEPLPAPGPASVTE
Chain of DOT1L (Q8TEK3 whole entry, species assumed): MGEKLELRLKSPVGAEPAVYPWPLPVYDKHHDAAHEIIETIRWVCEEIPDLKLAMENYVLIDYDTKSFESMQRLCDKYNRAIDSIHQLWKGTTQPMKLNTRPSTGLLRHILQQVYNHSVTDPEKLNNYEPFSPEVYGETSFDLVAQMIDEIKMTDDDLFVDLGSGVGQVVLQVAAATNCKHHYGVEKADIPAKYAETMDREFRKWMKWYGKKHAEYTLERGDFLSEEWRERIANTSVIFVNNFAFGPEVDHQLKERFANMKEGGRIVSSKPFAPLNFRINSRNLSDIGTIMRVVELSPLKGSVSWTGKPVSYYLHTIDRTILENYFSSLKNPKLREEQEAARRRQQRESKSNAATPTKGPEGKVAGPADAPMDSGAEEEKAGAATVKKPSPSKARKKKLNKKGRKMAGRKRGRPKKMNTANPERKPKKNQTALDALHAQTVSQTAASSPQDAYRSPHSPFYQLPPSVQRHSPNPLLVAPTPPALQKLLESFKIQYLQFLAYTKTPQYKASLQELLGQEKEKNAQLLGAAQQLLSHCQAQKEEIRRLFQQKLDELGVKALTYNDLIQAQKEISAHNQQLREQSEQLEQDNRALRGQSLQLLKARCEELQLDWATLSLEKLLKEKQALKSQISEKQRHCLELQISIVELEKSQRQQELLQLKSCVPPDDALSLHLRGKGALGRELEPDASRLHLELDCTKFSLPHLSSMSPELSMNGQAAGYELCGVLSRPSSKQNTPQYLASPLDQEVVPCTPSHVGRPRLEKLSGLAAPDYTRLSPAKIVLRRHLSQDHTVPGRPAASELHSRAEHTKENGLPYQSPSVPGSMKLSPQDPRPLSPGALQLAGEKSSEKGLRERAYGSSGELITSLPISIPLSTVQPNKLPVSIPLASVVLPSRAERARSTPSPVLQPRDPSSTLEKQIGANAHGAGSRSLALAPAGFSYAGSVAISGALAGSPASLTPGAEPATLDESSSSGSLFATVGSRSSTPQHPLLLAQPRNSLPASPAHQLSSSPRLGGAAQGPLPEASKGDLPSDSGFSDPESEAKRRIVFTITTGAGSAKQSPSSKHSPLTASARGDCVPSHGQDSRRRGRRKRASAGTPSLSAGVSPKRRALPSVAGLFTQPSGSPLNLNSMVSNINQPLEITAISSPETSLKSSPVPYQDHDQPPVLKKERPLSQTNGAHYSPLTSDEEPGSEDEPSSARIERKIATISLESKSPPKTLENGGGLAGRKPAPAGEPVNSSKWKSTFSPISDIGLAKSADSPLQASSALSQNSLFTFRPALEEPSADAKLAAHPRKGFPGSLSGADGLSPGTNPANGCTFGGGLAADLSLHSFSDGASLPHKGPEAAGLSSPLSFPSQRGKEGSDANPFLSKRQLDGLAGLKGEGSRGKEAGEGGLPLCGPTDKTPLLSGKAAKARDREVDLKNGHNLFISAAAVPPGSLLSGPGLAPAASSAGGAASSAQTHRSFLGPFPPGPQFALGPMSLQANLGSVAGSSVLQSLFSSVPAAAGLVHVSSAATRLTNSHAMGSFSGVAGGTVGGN

- PNMT inhibition at the concentrations tested (Human recombinant PNMT; 1 and 10 μM): less than 50%
- inhibitory activity against PNMT lower than against NNMT (Human recombinant PNMT; selectivity NNMT over PNMT): more than 3000 fold
- PRMT4/CARM1 inhibition at the concentrations tested (PRMT4/CARM1): no inhibition was observed
- activity at 1 µM (SMYD2; read-out: SMYD2 Average Activity (%) 1µM): 39%
- activity at 10 µM (SMYD2; read-out: SMYD2 Average Activity (%) 10µM): 19%
- higher potency toward NNMT (than SMYD-2) (SMYD2; selectivity NNMT over SMYD-2): > 100 fold
- PRMT5 activity of the compound (in words) (PRMT5; 1 μM): no appreciable activity
- inhibition at 10 µM (PRMT5; read-out: PRMT5 inhibition): > 50%
- DOT1L activity of the compound (in words) (DOT1L; 1 μM): no appreciable activity
- inhibition at 10 µM (DOT1L; read-out: DOT1L inhibition): > 50%
SMILES: N#Cc1ccc(/C=C/CN(CC[C@H](N)C(=O)O)C[C@H]2O[C@@H](n3cnc4c(N)ncnc43)[C@H](O)[C@@H]2O)cc1 [Compound 17u, (S)-2-Amino-4-((((2R,3S,4R,5R)-5-(6-amino-9H-purin-9-yl)-3,4-dihydroxytetrahydrofuran-2-yl)methyl)((E)-3-(4-cyanophenyl)allyl)amino)butanoic Acid]
- effect on cell viability, HSC-2 ([1]; 100 μM, MTT, 24, 48 and 72 h): clear inhibition of the cell viability; also recorded: significant decrease in cell viability
- effect on cell viability, HSC-2 [1, 5]: absent
- effect on cell viability, A549 ([2]; 100 μM, MTT, 24, 48 and 72 h): clear inhibition of the cell viability; also recorded: significant decrease in cell viability
- effect on cell viability, A549 [2, 5]: absent
- effect on cell viability, T24 ([3]; 100 μM, MTT, 24, 48 and 72 h): clear inhibition of the cell viability; also recorded: significant decrease in cell viability
- effect on cell viability, T24 [3, 5]: absent
- cell permeability (in words) [4]: very poor cell permeability; also recorded: poor cell permeability
